For assay [1], the target named is Human indoleamine 2,3-dioxygenase1 (hIDO1) (Homo sapiens (Human), UniProt P14902). Kind of assay: In-vitro IDO1 enzyme assay (conversion of L-tryptophan to KYN). In kind it is biochemical. To be noted: read-out: IC50 (IDO1) Enz. In short, it runs like this:
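His-tagged hIDO1 (10 nM, E. coli-expressed) incubated with 30 μM L-tryptophan, 20 mM ascorbate, 10 μM methylene blue and 100 μg/mL catalase in 50 mM potassium phosphate pH 6.5, 30 min at 37 °C. TCA stop, then 65 °C hydrolysis; KYN measured by HPLC-UV at 360 nm or LC/MS/MS. IC50 by nonlinear regression versus 1% DMSO control.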

The target in the next assay is IDO1 in HeLa cells (Homo sapiens (Human), UniProt P14902). Kind of assay: HeLa cell based IDO1 assay (IFNγ-induced, KYN in supernatant). In short, it runs like this:
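HeLa cells were induced overnight with IFNγ (50 ng/mL), washed, then exposed to compound (typically 10 μM–1 nM) in HBSS with 80 μM L-tryptophan. Supernatant was TCA-treated at 65 °C for 15 min to convert N-formylkynurenine, and KYN was measured by HPLC-UV at 360 nm. IC50 came from nonlinear regression against a 1% DMSO control.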

For assay [2], the target named is Human TDO (hTDO)-transfected CHO-K1 cells (Homo sapiens (Human), UniProt P48775). Kind of assay: CHO-K1 cell based TDO assay. To be noted: hTDO cellular assay. In short, it runs like this:
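Stably hTDO-expressing CHO-K1 cells were exposed to compounds (typically 31 μM to 10 nM) in HBSS with 80 μM L-tryptophan for 2 h. TCA-treated supernatant was heated at 65° C for 15 min to convert N-formylkynurenine, then kynurenine was quantified by LC/MS/MS. IC50 came from percent inhibition versus DMSO control.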

Where a name gives a salt, the structure may show the parent alone.

Chain of Human indoleamine 2,3-dioxygenase1 (hIDO1) (P14902 whole entry): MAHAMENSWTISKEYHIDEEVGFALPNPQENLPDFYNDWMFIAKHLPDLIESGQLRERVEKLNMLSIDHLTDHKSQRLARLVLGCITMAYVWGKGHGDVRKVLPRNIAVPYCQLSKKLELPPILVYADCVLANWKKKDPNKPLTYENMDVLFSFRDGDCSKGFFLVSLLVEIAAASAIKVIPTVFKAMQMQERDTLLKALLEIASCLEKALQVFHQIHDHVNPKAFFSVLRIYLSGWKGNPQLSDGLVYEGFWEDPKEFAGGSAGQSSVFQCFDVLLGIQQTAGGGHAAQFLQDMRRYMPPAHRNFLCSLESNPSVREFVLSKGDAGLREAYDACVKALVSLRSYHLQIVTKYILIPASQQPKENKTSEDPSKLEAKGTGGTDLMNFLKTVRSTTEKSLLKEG
Chain of IDO1 in HeLa cells (P14902 whole entry): as above
Chain of Human TDO (hTDO)-transfected CHO-K1 cells (P48775 whole entry): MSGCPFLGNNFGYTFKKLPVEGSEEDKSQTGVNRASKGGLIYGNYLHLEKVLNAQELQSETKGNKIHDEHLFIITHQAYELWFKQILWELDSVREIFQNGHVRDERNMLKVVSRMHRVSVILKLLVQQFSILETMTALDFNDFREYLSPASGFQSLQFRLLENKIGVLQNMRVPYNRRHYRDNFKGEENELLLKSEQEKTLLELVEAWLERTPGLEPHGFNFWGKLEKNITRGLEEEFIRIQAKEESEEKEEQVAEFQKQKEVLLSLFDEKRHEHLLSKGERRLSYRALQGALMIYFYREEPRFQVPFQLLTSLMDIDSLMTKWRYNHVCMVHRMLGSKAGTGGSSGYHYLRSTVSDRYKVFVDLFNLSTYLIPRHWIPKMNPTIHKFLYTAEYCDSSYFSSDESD

For the molecule `Nc1oc2c(-c3cccc(C(F)(F)F)c3)nccc2c1Nc1ccc(F)c(Cl)c1` [Compound 199, N^3-(3-Chloro-4-fluorophenyl)-7-(3-(trifluoromethyl)phenyl)furo[2,3-c]pyridine-2,3-diamine], the figures for the IC50 (in assay [1]; against IDO1 in HeLa cells; in assay [2]) were less than 200 nM, less than 200 nM and greater than 2000 nM, respectively.
With `Nc1oc2c(N(c3ccccc3)c3ccccc3)nccc2c1Nc1ccc(F)c(Cl)c1` [Compound 200, N^3-(3-Chloro-4-fluorophenyl)-N^7,N^7-diphenylfuro[2,3-c]pyridine-2,3,7-triamine], the IC50 (in general, the point on the concentration scale where inhibition reaches its midpoint) in assay [1] was 200 to 1000 nM; at IDO1 in HeLa cells it was less than 200 nM; in assay [2], greater than 2000 nM.
Regarding `Nc1oc2c(-c3ccncc3)nccc2c1Nc1ccc(F)cc1` [Compound 201, N^3-(4-Fluorophenyl)-7-(pyridin-4-yl)furo[2,3-c]pyridine-2,3-diamine], the IC50 in assay [1] was less than 200 nM; on IDO1 in HeLa cells, less than 200 nM; in assay [2] it was less than 500 nM.
On to `Nc1oc2c(-c3ccncc3)nccc2c1Nc1ccccc1Cl` [Compound 202, N^3-(2-Chlorophenyl)-7-(pyridin-4-yl)furo[2,3-c]pyridine-2,3-diamine], for which the results for the IC50 (in assay [1]; at IDO1 in HeLa cells; in assay [2]) were less than 200 nM, less than 200 nM and 500 to 2000 nM, respectively.
As for `Nc1oc2c(-c3ccncc3)nccc2c1Nc1cccc(C(F)(F)F)c1` [Compound 203, 7-(Pyridin-4-yl)-N^3-(3-(trifluoromethyl)phenyl)furo[2,3-c]pyridine-2,3-diamine], the values for the half-inhibitory concentration (IC50) (in assay [1]; against IDO1 in HeLa cells; in assay [2]) were less than 200 nM, less than 200 nM and 500 to 2000 nM, respectively.
Take `Nc1oc2c(-c3cccc4ccccc34)nccc2c1Nc1ccc(F)c(Cl)c1` [Compound 204, N^3-(3-Chloro-4-fluorophenyl)-7-(naphthalen-1-yl)furo[2,3-c]pyridine-2,3-diamine]: the IC50 in assay [1] is less than 200 nM; on IDO1 in HeLa cells, less than 200 nM; in assay [2] it was less than 500 nM.
Turning to `Cc1cc(-c2nccc3c(Nc4ccc(F)c(C(F)(F)F)c4)c(N)oc23)ccn1` [Compound 205, N^3-(4-fluoro-3-(trifluoromethyl)phenyl)-7-(2-methylpyridin-4-yl)furo[2,3-c]pyridine-2,3-diamine], the figures for the IC50 (in assay [1]; against IDO1 in HeLa cells; in assay [2]) were less than 200 nM, less than 200 nM and 500 to 2000 nM, respectively.
Consider `Cc1cc(-c2nccc3c(Nc4ccccc4Cl)c(N)oc23)ccn1` [Compound 206, N^3-(2-chlorophenyl)-7-(2-methylpyridin-4-yl)furo[2,3-c]pyridine-2,3-diamine], for which the IC50 in assay [1] was less than 200 nM; at IDO1 in HeLa cells, less than 200 nM; in assay [2], 500 to 2000 nM.
On to `Cc1cc(-c2nccc3c(Nc4cccc(C(F)(F)F)c4)c(N)oc23)ccn1` [Compound 207, 7-(2-methylpyridin-4-yl)-N^3-(3-(trifluoromethyl)phenyl)furo[2,3-c]pyridine-2,3-diamine], for which the IC50 was less than 200 nM in assay [1], less than 200 nM at IDO1 in HeLa cells and 500 to 2000 nM in assay [2].
In the case of `Cc1cc(-c2nccc3c(Nc4ccc(F)cc4)c(N)oc23)ccn1` [Compound 208, N^3-(4-fluorophenyl)-7-(2-methylpyridin-4-yl)furo[2,3-c]pyridine-2,3-diamine], the IC50 in assay [1] is less than 200 nM; at IDO1 in HeLa cells it was less than 200 nM; in assay [2], less than 500 nM.
As for `Nc1sc2c(Br)cccc2c1Nc1ccc(F)c(Cl)c1` [Compound 210, 7-Bromo-N^3-(3-chloro-4-fluorophenyl)benzo[b]thiophene-2,3-diamine hydrochloride], the IC50 in assay [1] was less than 200 nM; on IDO1 in HeLa cells, 200 to 1000 nM; in assay [2], 500 to 2000 nM.
Regarding `Nc1sc2ccccc2c1Nc1ccc(F)c(F)c1` [Compound 211, N^3-(3,4-Difluorophenyl)benzo[b]thiophene-2,3-diamine], the values for the IC50 (in assay [1]; against IDO1 in HeLa cells; in assay [2]) were less than 200 nM, less than 200 nM and less than 500 nM, respectively.
As to `Nc1sc2c(-c3ccncc3)cccc2c1Nc1ccc(F)c(Cl)c1` [Compound 213, N^3-(3-Chloro-4-fluorophenyl)-7-(pyridin-4-yl)benzo[b]thiophene-2,3-diamine], the 50% inhibitory concentration (IC50) in assay [1] is less than 200 nM; at IDO1 in HeLa cells, less than 200 nM; in assay [2] it was 500 to 2000 nM.
Turning to `Cc1ccc2sc(N)c(Nc3ccc(F)c(Cl)c3)c2c1` [Compound 214, N^3-(3-Chloro-4-fluorophenyl)-5-methylbenzo[b]thiophene-2,3-diamine], the half-maximal inhibitory concentration (IC50) is 200 to 1000 nM in assay [1], less than 200 nM against IDO1 in HeLa cells and greater than 2000 nM in assay [2].
For `Cc1ccc2sc(N)c(Nc3ccc(F)c(F)c3)c2c1` [Compound 215, N^3-(3,4-difluorophenyl)-5-methylbenzo[b]thiophene-2,3-diamine], in that order: 200 to 1000 nM, less than 200 nM and greater than 2000 nM.
Regarding `Nc1oc2cnc(F)cc2c1Nc1ccc(F)c(F)c1` [Compound 216, N^3-(3,4-difluorophenyl)-5-fluorofuro[2,3-c]pyridine-2,3-diamine], the IC50 was less than 200 nM in assay [1], less than 200 nM on IDO1 in HeLa cells and less than 500 nM in assay [2].
Regarding `Nc1oc2c(-c3ccncc3)nccc2c1Nc1cccc(Cl)c1` [Compound 217, N^3-(3-Chlorophenyl)-7-(pyridin-4-yl)furo[2,3-c]pyridine-2,3-diamine], the results for the IC50 (in assay [1]; on IDO1 in HeLa cells; in assay [2]) were less than 200 nM, less than 200 nM and less than 500 nM, respectively.
Regarding `Nc1oc2cnc(F)cc2c1Nc1ccccc1Cl` [Compound 218, N^3-(2-Chlorophenyl)-5-fluorofuro[2,3-c]pyridine-2,3-diamine], the IC50 in assay [1] was 200 to 1000 nM; against IDO1 in HeLa cells, less than 200 nM; in assay [2] it was 500 to 2000 nM.
Take `CNC(=O)c1cc(-c2nccc3c(Nc4ccccc4Cl)c(N)oc23)ccn1` [Compound 219, 4-(2-Amino-3-((2-chlorophenyl)amino)furo[2,3-c]pyridin-7-yl)-N-methylpicolinamide]: the IC50 in assay [1] was less than 200 nM; at IDO1 in HeLa cells it was less than 200 nM; in assay [2], 500 to 2000 nM.
`Nc1oc2cnc(F)cc2c1Nc1cccc(Cl)c1` [Compound 220, N^3-(3-Chlorophenyl)-5-fluorofuro[2,3-c]pyridine-2,3-diamine]: the half-maximal inhibitory concentration (IC50) in assay [1] is less than 200 nM; on IDO1 in HeLa cells, less than 200 nM; in assay [2], less than 500 nM.
With `Nc1oc2cnc(F)cc2c1Nc1cccc(C(F)(F)F)c1` [Compound 221, 5-Fluoro-N^3-(3-(trifluoromethyl)phenyl)furo[2,3-c]pyridine-2,3-diamine], the IC50 is less than 200 nM in assay [1], less than 200 nM on IDO1 in HeLa cells and 500 to 2000 nM in assay [2].
For the molecule `CNC(=O)c1cc(-c2nccc3c(Nc4ccc(F)c(F)c4)c(N)oc23)ccn1` [Compound 223, 4-(2-Amino-3-((3,4-difluorophenyl)amino)furo[2,3-c]pyridin-7-yl)-N-methylpicolinamide], the half-maximal inhibitory concentration (IC50) was less than 200 nM in assay [1], less than 200 nM at IDO1 in HeLa cells and 500 to 2000 nM in assay [2].
In the case of `CNC(=O)c1cc(-c2nccc3c(Nc4ccc(F)cc4)c(N)oc23)ccn1` [Compound 224, 4-(2-Amino-3-((4-fluorophenyl)amino)furo[2,3-c]pyridin-7-yl)-N-methylpicolinamide], the half-maximal inhibitory concentration (IC50) in assay [1] is less than 200 nM; against IDO1 in HeLa cells it was less than 200 nM; in assay [2], less than 500 nM.
Turning to `CNC(=O)c1cc(-c2nccc3c(Nc4cccc(Cl)c4)c(N)oc23)ccn1` [Compound 225, 4-(2-Amino-3-((3-chlorophenyl)amino)furo[2,3-c]pyridin-7-yl)-N-methylpicolinamide], the results for the IC50 (in assay [1]; against IDO1 in HeLa cells; in assay [2]) were less than 200 nM, less than 200 nM and 500 to 2000 nM, respectively.
`CNC(=O)c1cc(-c2nccc3c(Nc4cccc(C(F)(F)F)c4)c(N)oc23)ccn1` [Compound 226, 4-(2-Amino-3-((3-(trifluoromethyl)phenyl)amino)furo[2,3-c]pyridin-7-yl)-N-methylpicolinamide]: the IC50 in assay [1] was less than 200 nM; against IDO1 in HeLa cells it was less than 200 nM; in assay [2] it was greater than 2000 nM.
In the case of `CNC(=O)c1cc(-c2nccc3c(Nc4ccc(F)c(C(F)(F)F)c4)c(N)oc23)ccn1` [Compound 227, 4-(2-amino-3-((4-fluoro-3-(trifluoromethyl)phenyl)amino)furo[2,3-c]pyridin-7-yl)-N-methylpicolinamide], the results for the IC50 (in assay [1]; on IDO1 in HeLa cells; in assay [2]) were less than 200 nM, less than 200 nM and greater than 2000 nM, respectively.
Regarding `Nc1oc2cnc(F)cc2c1Nc1ccc(F)cc1` [Compound 228, 5-Fluoro-N^3-(4-fluorophenyl)furo[2,3-c]pyridine-2,3-diamine], the figures for the IC50 (in assay [1]; on IDO1 in HeLa cells; in assay [2]) were less than 200 nM, less than 200 nM and less than 500 nM, respectively.
On to `COc1cc(-c2nccc3c(Nc4ccc(F)c(Cl)c4)c(N)oc23)ccn1` [Compound 229, N^3-(3-Chloro-4-fluorophenyl)-7-(2-methoxypyridin-4-yl)furo[2,3-c]pyridine-2,3-diamine], for which the results for the IC50 (in assay [1]; at IDO1 in HeLa cells; in assay [2]) were less than 200 nM, less than 200 nM and 500 to 2000 nM, respectively.
For the molecule `Nc1sc2ccccc2c1Nc1cccc(Br)c1` [Compound 230, N^3-(3-Bromophenyl)benzo[b]thiophene-2,3-diamine], the concentration for half-maximal inhibition (IC50) in assay [1] is less than 200 nM; against IDO1 in HeLa cells it was less than 200 nM; in assay [2] it was 500 to 2000 nM.

Values taken from patent publication US10294212B2 (CURADEV PHARMA PRIVATE LTD., priority 2013, dated 2019).
